Data set [1] concerns Drosophila melanogaster. The data set can be described thus: Anoxia tolerance of adult flies after CO2 and/or H2S pretreatment. In kind it is in vivo. The following applies: bubbler water not equilibrated with N2, 13 h anoxic exposure.
The subject of data set [2] is Drosophila melanogaster. The description is as above. Format: in vivo. How it is done: Basic experimental setup. Adult flies were introduced into 35 mL tubes made of glass with a gas-tight rubber stopper (Balsh tubes). This was usually accomplished by anesthetizing flies with CO2, moving groups of flies to vials with food to recover for at least 2 hours, and then transferring them into the Balsh tube. To exchange the gaseous environment in the Balsh tube, two 18 gauge needles were inserted into the rubber stopper, and gas is blown into one of the needles at 100 mL/min. To prevent dessication, gasses were humidified by bubbling through 10 mL of water before passing it through the Balsch tube. The water in the bubbler is equilibrated with the gas for at least 20 minutes before starting the experiment.
For “stopped-flow” experiments, gas exchange proceeded for 60 minutes before sealing the tube. For “low-flow” experiments, gas flow continued throughout the experiment. CO2 was from the house source (100%), and anoxic environments were established by flushing out room air with 100% nitrogen (N2). Care was taken to prevent introduction of room air into the system while switching the atmosphere from CO2 to N2.
After anoxic treatment, oxygen was reintroduced into the Balsh tube by flushing with house air for 20 minutes. The rubber stopper was then removed and a food vial is inverted over the top of the Balsh tubes with Parafilm. […] Viability was scored at least 18 hours after the end of anoxic treatment. After two weeks, if the food vials contained larvae and/or pupae the flies were considered to be fertile.

In data set [3] the test system is Drosophila melanogaster embryos and larvae. The data set is described as follows: Anoxia survival of fly embryos and larvae. In kind it is in vivo. The method, then:
Preliminary experiments with larvae and embryos. […] After exposure to anoxia for 24 h, 7 pupae were formed from a pool of 0-19 h old embryos. However, 20 pupae were observed from a matched pool that was pretreated with CO2 for 10 min.

For data set [4], the system named is rat hemorrhage model. The data set can be described thus: Controlled lethal hemorrhage (60% blood loss) in rats treated with H2S. In kind it is in vivo. How it is done:
After surgical implantation of catheters and recovery, blood was removed from conscious animals in 40 minutes. […] Three hours after the end of the bleed, surviving animals were given one shed-blood volume of lactated ringers solution intravenously.

The subject of data set [5] is C. elegans. The data set is described as follows: Lifespan of C. elegans adapted to H2S. In kind it is in vivo. The source says:
Animals raised in house air were moved to H2S-containing environments at the beginning of the lifespan experiment. The lifespan of these animals is 14.8±0.3 days, which is shorter than controls that remained in house air (mean lifespan 18.2±0.4 days).

Data set [6] deals with mice in lethal hypoxia. The data set can be described thus: Survival of H2S pre-treated mice in lethal hypoxia. In kind it is in vivo, mouse. The following applies: graded reduction of oxygen tension following H2S pre-treatment. How it is done: FIG. 11 Survival of Mice in 5% Oxygen.
Experiments were stopped at 60 minutes and if the animals still alive were returned to their cage.

Data set [7] deals with rats. The following applies: cited from earlier work.
In data set [8] the test system is C. elegans. The data set can be described thus: Thermotolerance of C. elegans adapted to H2S. Format: in vivo. The text has this:
A: Adapted animals survive at high temperature longer than unadapted controls. Adapted animals were exposed to high temperature in H2S as young adults.

Data set [9] relates to mice. The data set is described as follows: Metabolic rate (CO2 production, O2 consumption) of mice with H2S and hypoxia. In kind it is in vivo, mouse. The following applies: Ta=13° C. How it is done:
FIG. 14 Metabolic Rate of a Mouse in 5% Oxygen. […] Metabolic rate measured by CO2 output. […] At hour 6 the mouse was returned to room air and allowed to recover.
FIG. 15 CO2 Production During Transition to Lethal Hypoxia. […] In addition, the change in CO2 production upon step-wise transition to 5% O2 for 1 hr followed by 4% O2 was measured. The percent change in CO2 production is plotted with standard error indicated.
Relative carbon dioxide production and oxygen consumption of a mouse when pretreated and exposed to 5% O2. […] These experiments were done at Ta=13° C. so they could be compared to our previous studies. Values are the means from three animals and the error bars represent one standard deviation. p-values indicate the significance between the bars with the same symbols.
To determine the rate of consumption of oxygen or the rate of production of carbon dioxide the biological matter is placed into a chamber that is sealed with two openings; for gas import and export. Gas (room air or other gases) is passed into the chamber at a given flow rate and out of the exit port to maintain approximately 1 atmosphere of pressure in the chamber. […]
In addition, the change in CO2 production upon step-wise transition to 5% O2 for 1 hr followed by 4% O2 was measured.

The test system of data set [10] is C. elegans. The data set can be described thus: Developmental rates, progeny and rate of egg-laying of C. elegans in H2S. In kind it is in vivo.
From the text: The rate of egg-laying is tightly correlated with oocyte production, an energetically expensive activity that is a sensitive readout of metabolic capacity.
Data set [11] has as its system rodents and humans. The following applies: 500 ppm; followed by recovery; cited from earlier work.
The subject of data set [12] is humans. The following applies: cited from earlier work.

Like-named read-outs stand apart in the source and are kept apart here.

`O=C=O` [CO2, carbon dioxide]: the “Survival of adult flies” value in data set [1] is listed as “no flies survived”; in data set [2] (10 min CO2 pretreatment, 17, 22, and 24 h anoxia, low-flow, one experiment) it was “no survival”; in data set [2] (CO2 10 minutes pretreatment (no H2S), 20 h anoxic exposure, low-flow) it was 6%; in data set [2] (CO2 pretreatment 30 minutes, 19 h anoxic exposure, stopped-flow) it was 54%; in data set [2] (CO2 pretreatment 90 minutes, 19 h anoxic exposure, stopped-flow), 28%; in data set [2] (CO2 pretreatment, anoxic exposure, then CO2 for 20 minutes immediately following), “no flies survived”. Moreover, in data set [2] (CO2 without subsequent anoxic exposure), the “Survival of adult flies” value is given as “No survival”. Besides, in [2] (flies kept at 4° C. during anoxia), the “Effect of CO2 pretreatment in cold treatment experiments” value is “did not have a noticeable difference”. In data set [2] (low-flow, 100% CO2 10 min, trend (FIG. 9)), the “Survival versus no pretreatment” value was “greater survival”. Besides, in data set [2] (stopped-flow, 22 h anoxic exposure), the “Time of CO2 administration giving the highest fraction of surviving flies” value lay within 0.5 to 5 min. Moreover, in data set [3] (18.5 h anoxic exposure), the “Survival of 0-24 h old embryos” value was “develop to adulthood”. Further, the “Movement of larvae upon reoxygenation” value in data set [3] (24.5 h anoxia, only if pretreated) is listed as “resume movement”. For the same compound, the “Pupae formed from a pool of 0-19 h old embryos” value in data set [3] (CO2 pretreatment 10 min, anoxia 24 h) turned out to be 20 pupae.

As to `O=C=O` [CO, carbon dioxide], the Flies recovered in [2] (treated only with CO2 for 10 min before the anoxic exposure, control experiment) was determined as 11%.

Consider `S` [H2S, Hydrogen sulfide], for which, in data set [4] (300 ppm H2S in room air from 20 min into the 40 min bleed to end of bleed), the Complete recovery amounted to 85.7%. In data set [4] (300 ppm H2S, survivors/treated), the “Rats that survived hemorrhage and 3 hour shock period and recovered completely” value is given as 6/7. Further, the “Blood bicarbonate content ([HCO3^−])” value in data set [4] (End of bleed) was 21 ± 3 mmol/L; in [4] (Pre-bleed), 32 ± 3 mmol/L. In addition, the Mean lifespan in [5] (adapted animals in H2S (n=80)) stood at 22.6 ± 1.0 days. Also, the “Increase of maximum lifespan” value in [5] (animals grown in H2S versus untreated controls) is recorded as 4 days. Also, the Lifespan was determined as 14.8 ± 0.3 days in data set [5] (raised in house air, moved to H2S at the beginning of the lifespan experiment) and 20.0 ± 1.6 days in [5] (sir-2.1(ok434) animals raised in H2S (n=47)). The “Lowest oxygen tension survived for an hour” value in data set [6] was found to be 2.5%. In addition, the “Survival of adult flies” value in data set [2] (50 ppm H2S in room air prior to anoxia, 18.5 h) is listed as 25%; in data set [2] (50 ppm H2S in the CO2 pretreatment, removed as anoxia is established, 20 h), 35%; in data set [2] (CO2 10 min, H2S/CO2 10 min, N2/H2S 10 min, then N2, 15 h anoxic exposure, low-flow), 50%. For the same compound, the “Effect of perinatal exposure” value in data set [7] (20 or 50 ppm H2S, 7 hours per day from gestation through post-natal day 21) is “longer dendritic branches with reduced aborization of cerebellar Purkinje cells”. Besides, the “Effects of repeated gas exposure” value in data set [7] (80 ppm or greater H2S, 3 hours per day on five consecutive days (Struve et al. 2001)) was “Significant reductions in motor activity, water maze performance and body temperature”. In addition, the “Behavioral toxicity, learning” value in data set [7] (moderate levels (Partlo et al., 2001)) is listed as “interferes with the ability of rats to learn a baited radial arm maze task”. Besides, the “Behavioral toxicity, avoidance” value in data set [7] (moderate levels, immediately after the end of the exposure (Higuchi and Fukamachi)) is on record as “inhibits discriminated avoidance responses”. For the same compound, the “Effects in exposed rat pups” value in data set [7] (perinatal study, 80 ppm H2S (Dorman et al. 2000)) is “no neuropathological effects or altered motor activity, passive avoidance, or acoustic startle response”. For the same compound, in data set [8] (adapted animals at high temperature in room air), the “Survival at high temperature” value is recorded as 7.3 h. Moreover, the “H2S-treated animals alive when all untreated animals had died” value in data set [8] (average, data not shown) turned out to be 80%. Moreover, the “Mean survival time at high temperature” value in data set [8] (sir-2.1(ok434) animals grown in H2S, high temperature in H2S (n=20)) turned out to be 9.8 ± 0.3 h; in data set [8] (unadapted animals moved to high temperature in 50 ppm H2S), 2.1 h; in data set [8] (wild-type adapted animals, high temperature in H2S (n=136)), 65.5 h. For the same compound, the “Drop in metabolic rate” value in data set [9] (150 ppm H2S 20 min pretreatment then long exposure to 5% oxygen) is given as “over 50 fold”; in [9] (H2S alone for the same period of time (80 ppm, six hours)) it was 10 fold. Further, the Rate of egg-laying in data set [10] (adapted (wild-type in 50 ppm H2S), in 2% O2) is listed as 4.9 ± 1.4 embryos per hour; in [10] (adapted (wild-type in 50 ppm H2S), in 2% O2 + H2S) it was 4.7 ± 1.2 embryos per hour; in data set [10] (adapted (wild-type in 50 ppm H2S), in H2S), 7.8 ± 2.0 embryos per hour; in [10] (clk-1(qm30), in 2% O2 + H2S), 2.5 ± 1.0 embryos per hour; in [10] (clk-1(qm30), in H2S) it was 3.2 ± 1.1 embryos per hour; in [10] (unadapted (wild-type grown in room air), in H2S, ± SD, n = 10), 8.3 ± 3.0 embryos per hour. For the same compound, the Rate of egg-laying in [10] (unadapted, in 2% O2 + H2S) was found to be 4.5 ± 1.6 embryos per hour. Also, the “embryogenesis, hours ± SEM (n)” value in data set [10] (adapted: wild-type animals in 50 ppm H2S, median time for 2-cell embryos to hatch at room temperature) is listed as 13.3 ± 0.4 (34) hours. Besides, in data set [10] (adapted: wild-type animals in 50 ppm H2S, median time for starved first-stage larvae to become gravid adults), the “post-embryonic, hours ± SEM (n)” value was 49.3 ± 0.2 (15) hours. In addition, the Numbers of progeny in data set [10] (animals raised in low H2S) was found to be 221±35. Moreover, the “Effect of exposure to extreme levels” value in data set [11] is “sudden collapse and unconsciousness”.

Turning to `[C-]#[O+]` [carbon monoxide, Carbon monoxide], the “Effect on exposed humans” value in data set [12] (50 ppm) was “no symptoms”; in data set [12] (200 ppm, within two-three hours), “slight headache”; in [12] (400 ppm, within one to two hours) it was “frontal headache”; in data set [12] (800 ppm, within 45 minutes), “dizziness, nausea, and/or convulsions”. Besides, the “Effect on an organism” value in data set [12] (around 1000 ppm, exposure for more than around 1-2 minutes) is given as “expire”.

The values are drawn from patent US20080226750A1, “Methods, Compositions and Articles of Manufacture for Treating Shock and Other Adverse Conditions” (priority 2006, published 2008).
